Measurements from ChEMBL document CHEMBL1201862, “PubChem BioAssay data set” (2004).
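All cell lines were grown in 96-well plates and treated with compound for 48 hours. Here, GI50 denotes the concentration required for 50% inhibition of growth.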 Calls of active or inactive are those of the source. No stated cut-off is given here; in the data, active = GI50 up to about 1.1 µM and inactive = higher.

Assays:
Assay in all cases: growth of human tumour cells (NCI), 48 h
NCI-H226 = tested on: NCI-H226
OVCAR-3 = tested on: OVCAR-3
UACC-62 = tested on: UACC-62
RPMI-8226 = tested on: RPMI-8226
EKVX = tested on: EKVX
HOP-92 = tested on: HOP-92
PC-3 = tested on: PC-3
HCC 2998 = tested on: HCC 2998
BT-549 = tested on: BT-549
U-251 = tested on: U-251
SNB-19 = tested on: SNB-19
NCI/ADR-RES = tested on: NCI/ADR-RES
TK-10 = tested on: TK-10
SK-MEL-2 = tested on: SK-MEL-2
MDA-MB-231 = tested on: MDA-MB-231
HT-29 = tested on: HT-29
HOP-62 = tested on: HOP-62
MOLT-4 = tested on: MOLT-4
Malme-3M = tested on: Malme-3M

Measured: GI50

O=C1NC2(CN3CCC2CC3)C(=O)N1CN(Cc1ccccc1)c1ccccc1 (configuration not stated)
inactive: NCI-H226 > 100 µM | OVCAR-3 > 100 µM | UACC-62 > 100 µM | RPMI-8226 28.2 µM | EKVX > 100 µM | HOP-92 > 100 µM | PC-3 > 100 µM | HCC 2998 39.6 µM | BT-549 > 100 µM | U-251 > 100 µM | SNB-19 > 100 µM | NCI/ADR-RES > 100 µM | TK-10 > 100 µM | SK-MEL-2 > 100 µM | MDA-MB-231 > 100 µM | HT-29 56.6 µM | HOP-62 > 100 µM | MOLT-4 68.7 µM

Oc1c(C2=NNC(c3ccc(Cl)cc3Cl)C2)ccc2ccccc12 (configuration not stated)
inactive: NCI-H226 50.4 µM | OVCAR-3 20.1 µM | UACC-62 40.6 µM | RPMI-8226 32 µM | HOP-92 31.7 µM | PC-3 31.6 µM | HCC 2998 34.5 µM | BT-549 69.2 µM | U-251 32.5 µM | Malme-3M 17.9 µM | NCI/ADR-RES 22 µM | TK-10 66.2 µM | SK-MEL-2 35.8 µM | MDA-MB-231 46.5 µM | HT-29 31.4 µM | HOP-62 38.7 µM | MOLT-4 5.7 µM

CC(NC(=O)C(OC(=O)C(C)NC(=O)OC(C)(C)C)C(C)C)C(=O)OC(C(=O)O)C(C)C (configuration not stated)
inactive: NCI-H226 > 100 µM | OVCAR-3 > 100 µM | UACC-62 > 100 µM | RPMI-8226 > 100 µM | EKVX > 100 µM | HOP-92 > 100 µM | PC-3 > 100 µM | HCC 2998 > 100 µM | BT-549 > 100 µM | U-251 > 100 µM | Malme-3M > 100 µM | SNB-19 > 100 µM | NCI/ADR-RES > 100 µM | TK-10 > 100 µM | SK-MEL-2 > 100 µM | MDA-MB-231 > 100 µM | HT-29 > 100 µM | HOP-62 > 100 µM | MOLT-4 > 100 µM

NS(=O)(=O)c1ccc(NCc2cnc3ccccc3c2)cc1
inactive: NCI-H226 > 100 µM | OVCAR-3 > 100 µM | UACC-62 > 100 µM | RPMI-8226 > 100 µM | EKVX > 100 µM | HOP-92 49.8 µM | PC-3 > 100 µM | HCC 2998 > 100 µM | BT-549 62.8 µM | U-251 > 100 µM | Malme-3M > 100 µM | SNB-19 > 100 µM | NCI/ADR-RES 83.8 µM | TK-10 > 100 µM | SK-MEL-2 > 100 µM | MDA-MB-231 > 100 µM | HT-29 > 100 µM | HOP-62 > 100 µM | MOLT-4 > 100 µM

CC(C(=O)O)c1ccc(-c2ccccc2)c(F)c1 (configuration not stated) [FLURBIPROFEN]
inactive: NCI-H226 > 100 µM | UACC-62 > 100 µM | RPMI-8226 > 100 µM | EKVX > 100 µM | HOP-92 > 100 µM | PC-3 > 100 µM | HCC 2998 > 100 µM | BT-549 > 100 µM | U-251 > 100 µM | Malme-3M > 100 µM | SNB-19 > 100 µM | NCI/ADR-RES > 100 µM | TK-10 > 100 µM | SK-MEL-2 > 100 µM | MDA-MB-231 > 100 µM | HT-29 > 100 µM | HOP-62 > 10 µM | MOLT-4 > 100 µM

CC1(C)C(=O)C=CC2(C)C1CC(O)C1(C)C2CCC2(C)C(c3ccoc3)OC(=O)C3OC321 (configuration not stated)
inactive: NCI-H226 14.2 µM | OVCAR-3 13.9 µM | UACC-62 12.6 µM | RPMI-8226 18.5 µM | EKVX 12.5 µM | HOP-92 16.4 µM | PC-3 31.6 µM | HCC 2998 13.4 µM | BT-549 18.7 µM | U-251 17.4 µM | SNB-19 18.9 µM | NCI/ADR-RES 14.4 µM | TK-10 16 µM | SK-MEL-2 11.8 µM | MDA-MB-231 15.8 µM | HT-29 17.1 µM | HOP-62 24.4 µM | MOLT-4 5.87 µM

O=c1[nH]nc(Cc2ccc(Cl)cc2)n1/N=C/c1cccs1
inactive: NCI-H226 43.5 µM | OVCAR-3 > 100 µM | UACC-62 > 100 µM | RPMI-8226 > 100 µM | EKVX 23 µM | HOP-92 24.6 µM | PC-3 > 100 µM | HCC 2998 > 100 µM | BT-549 24.9 µM | U-251 28.4 µM | Malme-3M > 100 µM | SNB-19 20.4 µM | NCI/ADR-RES 50.5 µM | SK-MEL-2 22.4 µM | MDA-MB-231 21.3 µM | HT-29 14 µM | HOP-62 22.1 µM | MOLT-4 > 100 µM

O=[N+]([O-])c1cccc(/N=N/c2c(O)c(S(=O)(=O)O)cc3cc(S(=O)(=O)O)ccc23)c1
inactive: NCI-H226 > 100 µM | OVCAR-3 > 100 µM | UACC-62 > 100 µM | EKVX > 100 µM | HOP-92 > 100 µM | PC-3 > 100 µM | HCC 2998 > 100 µM | BT-549 > 100 µM | U-251 > 100 µM | Malme-3M > 100 µM | SNB-19 > 100 µM | NCI/ADR-RES > 100 µM | TK-10 > 100 µM | SK-MEL-2 > 100 µM | MDA-MB-231 > 100 µM | HOP-62 > 100 µM | MOLT-4 > 100 µM

Cc1c(NC(=S)N/N=C\C(=N/NC(=S)Nc2c(C)n(C)n(-c3ccccc3)c2=O)c2ccccc2)c(=O)n(-c2ccccc2)n1C
inactive: NCI-H226 > 100 µM | OVCAR-3 > 100 µM | UACC-62 > 100 µM | EKVX > 100 µM | HOP-92 > 100 µM | PC-3 > 100 µM | HCC 2998 > 100 µM | BT-549 > 100 µM | U-251 > 100 µM | Malme-3M 87.1 µM | SNB-19 > 100 µM | NCI/ADR-RES > 100 µM | TK-10 > 100 µM | SK-MEL-2 > 100 µM | MDA-MB-231 > 100 µM | HT-29 > 100 µM | HOP-62 > 100 µM | MOLT-4 > 100 µM

CCOC(=O)c1[nH]c2ccccc2c1C(=O)C[C@H](NC(=O)C(F)(F)F)C(=O)OC
inactive: NCI-H226 > 100 µM | OVCAR-3 > 100 µM | RPMI-8226 > 100 µM | EKVX > 100 µM | HOP-92 > 100 µM | PC-3 > 100 µM | HCC 2998 > 100 µM | BT-549 > 100 µM | U-251 > 100 µM | Malme-3M > 100 µM | SNB-19 > 100 µM | NCI/ADR-RES 84.1 µM | TK-10 > 100 µM | SK-MEL-2 > 100 µM | MDA-MB-231 > 100 µM | HT-29 > 100 µM | HOP-62 > 100 µM | MOLT-4 > 100 µM

COc1ccc2c(c1O)[C@@]13CCCC=C1[C@@H](C2)[N+](C)(C)CC3
inactive: NCI-H226 > 100 µM | OVCAR-3 37.2 µM | UACC-62 > 100 µM | EKVX > 100 µM | HOP-92 > 100 µM | PC-3 > 100 µM | HCC 2998 > 100 µM | BT-549 46.7 µM | U-251 > 100 µM | Malme-3M > 100 µM | SNB-19 > 100 µM | NCI/ADR-RES > 100 µM | TK-10 > 100 µM | SK-MEL-2 > 100 µM | MDA-MB-231 > 100 µM | HT-29 > 100 µM | HOP-62 > 100 µM
